This is an account of results in PubChem BioAssay AID248 (DTP/NCI, 2004).

The assay deals with L1210 leukemia ip in BDF1 mice, survival T/C. The experiment in a line: NCI In Vivo Anticancer Drug Screen. Data for tumor model L1210 Leukemia (intraperitoneal) in B6D2F1 (BDF1) mice. Conditions: endpoint: mean survival time, higher = longer survival. The method in brief:
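Transplanted-tumor mice were given test agent; controls received vehicle only. Survival readings from the two groups were divided (treated over control).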

Setting [1] is: dose: 12.5 mg/kg/injection, schedule: Q04DX003 (ip), vehicle: saline.
The mark [2] stands for this setting: dose: 25.0 mg/kg/injection, schedule: Q04DX003 (ip), vehicle: saline.
The mark [3] stands for this setting: dose: 50.0 mg/kg/injection, schedule: Q01DX009 (ip), vehicle: Klucel (hydroxypropylcellulose) (HPC).
[4] abbreviates: dose: 100.0 mg/kg/injection, schedule: Q01DX009 (ip), vehicle: Klucel (hydroxypropylcellulose) (HPC).
The mark [5] stands for this setting: dose: 200.0 mg/kg/injection, schedule: Q01DX009 (ip), vehicle: Klucel (hydroxypropylcellulose) (HPC).
The mark [6] stands for this setting: dose: 100.0 mg/kg/injection, schedule: Q04DX003 (ip), vehicle: Klucel (hydroxypropylcellulose) (HPC).
Where [7] appears, read: dose: 400.0 mg/kg/injection, schedule: Q01DX009 (ip), vehicle: Klucel (hydroxypropylcellulose) (HPC).

SMILES strings stand for the structures. Several values for one entry are separate records, joined by “and”; a condition that tells them apart may be missing. Identical values can stand only once. Inconclusive results and toxic doses are left out.

Consider `Cc1cccc2cc3c(ccc4ccccc43)c[n+]12`, for which the T/C (dose: 2.0 mg/kg/injection, schedule: Q01DX015 (ip), vehicle: carboxymethylcellulose (CMC)) is 101 % of control; the T/C (dose: 4.0 mg/kg/injection, schedule: Q01DX015 (ip), vehicle: carboxymethylcellulose (CMC)) was 108 % of control; the T/C (dose: 5.0 mg/kg/injection, schedule: Q04DX003 (ip), vehicle: Klucel (hydroxypropylcellulose) (HPC)) was 106 % of control; the T/C (dose: 6.25 mg/kg/injection, schedule: Q01DX009 (ip), vehicle: saline with Tween-80) was 98 % of control; the T/C (dose: 6.25 mg/kg/injection, schedule: Q04DX003 (ip), vehicle: saline) is 93 % of control; the T/C (dose: 8.0 mg/kg/injection, schedule: Q01DX015 (ip), vehicle: carboxymethylcellulose (CMC)) was 105 % of control. In addition, the T/C was 103 % of control (dose: 10.0 mg/kg/injection, schedule: Q04DX003 (ip), vehicle: Klucel (hydroxypropylcellulose) (HPC)); 98 % of control (dose: 12.5 mg/kg/injection, schedule: Q01DX001 (ip), vehicle: saline); 115 % of control (dose: 12.5 mg/kg/injection, schedule: Q01DX009 (ip), vehicle: saline with Tween-80); 97 % of control under setting [1]; 100 % of control (dose: 20.0 mg/kg/injection, schedule: Q04DX003 (ip), vehicle: Klucel (hydroxypropylcellulose) (HPC)); 97 % of control (dose: 25.0 mg/kg/injection, schedule: Q01DX001 (ip), vehicle: saline). Further, the T/C reads like this: under setting [2], 97 % of control; (dose: 40.0 mg/kg/injection, schedule: Q04DX003 (ip), vehicle: Klucel (hydroxypropylcellulose) (HPC)) 97 % of control; (dose: 80.0 mg/kg/injection, schedule: Q04DX003 (ip), vehicle: Klucel (hydroxypropylcellulose) (HPC)) 100 % of control.

In the case of `CNC(=O)OCc1c(COC(=O)NC)c(-c2ccc(Cl)c(Cl)c2)n2c1CCC2`, the T/C is 106 % of control (dose: 12.5 mg/kg/injection, schedule: Q01DX009 (ip), vehicle: Klucel (hydroxypropylcellulose) (HPC)); 109 % of control (dose: 25.0 mg/kg/injection, schedule: Q01DX009 (ip), vehicle: Klucel (hydroxypropylcellulose) (HPC)); 124 % of control under setting [3].

Consider `c1ccc(C(CN2CCCCC2)c2ccccc2)cc1`, for which the T/C (dose: 44.0 mg/kg/injection, schedule: Q01DX Z (ip), vehicle: methylcellulose (MC)) was 93 % of control; the T/C (dose: 66.0 mg/kg/injection, schedule: Q01DX Z (ip), vehicle: methylcellulose (MC)) was 96 % of control; the T/C (dose: 100.0 mg/kg/injection, schedule: Q01DX Z (ip), vehicle: methylcellulose (MC)) is 105 % of control.

Regarding `CC[n+]1ccc(C)c2ccccc21`, the T/C was 102 % of control and 103 % of control (dose: 12.5 mg/kg/injection, schedule: Q04DX002 (ip), vehicle: saline); 103 % of control under setting [1]; 95 % of control and 98 % of control (dose: 25.0 mg/kg/injection, schedule: Q04DX002 (ip), vehicle: saline); 100 % of control under setting [2]; 95 % of control and 102 % of control (dose: 50.0 mg/kg/injection, schedule: Q04DX002 (ip), vehicle: saline); 105 % of control (dose: 50.0 mg/kg/injection, schedule: Q04DX003 (ip), vehicle: saline).

Take `CCCCN(CCCC)CCCNC(=S)Nc1ccccc1`: the T/C under setting [4] was 94 % of control and the T/C under setting [5] was 100 % of control.

`Cc1ccc(C)c(CN(C)C)c1O`: the T/C (dose: 6.0 mg/kg/injection, schedule: Q04DX003 (ip), vehicle: Klucel (hydroxypropylcellulose) (HPC)) was 98 % of control; the T/C (dose: 12.5 mg/kg/injection, schedule: Q04DX003 (ip), vehicle: Klucel (hydroxypropylcellulose) (HPC)) is 96 % of control; the T/C (dose: 25.0 mg/kg/injection, schedule: Q04DX003 (ip), vehicle: Klucel (hydroxypropylcellulose) (HPC)) is 89 % of control; the T/C under setting [3] was 97 % of control; the T/C (dose: 50.0 mg/kg/injection, schedule: Q04DX003 (ip), vehicle: Klucel (hydroxypropylcellulose) (HPC)) is 107 % of control; the T/C under setting [4] was 89 % of control. Under setting [6], the T/C was 100 % of control and 89 % of control.

Take `NCCOS(=O)(=O)O`: the T/C by setting is: under setting [4], 105 % of control; (dose: 100.0 mg/kg/injection, schedule: Q01DX009 (ip), vehicle: saline with Tween-80) 92 % of control; under setting [5], 101 % of control; (dose: 200.0 mg/kg/injection, schedule: Q01DX009 (ip), vehicle: saline with Tween-80) 108 % of control; under setting [7], 100 % of control; (dose: 400.0 mg/kg/injection, schedule: Q01DX009 (ip), vehicle: saline with Tween-80) 99 % of control.

With `Nc1cc(C(=O)Nc2ccc(C3=NCCN3)cc2)cc(C(=O)Nc2ccc(C3=NCCN3)cc2)c1`, the T/C reads like this: (dose: 4.0 mg/kg/injection, schedule: Q01DX Z (ip), vehicle: saline) 113 % of control; (dose: 8.0 mg/kg/injection, schedule: Q01DX004 (im), vehicle: olive oil, sesame oil, peanut oil) 95 % of control; (dose: 8.0 mg/kg/injection, schedule: Q01DX Z (ip), vehicle: saline) 107 % of control; (dose: 16.0 mg/kg/injection, schedule: Q01DX004 (im), vehicle: olive oil, sesame oil, peanut oil) 95 % of control; (dose: 16.0 mg/kg/injection, schedule: Q01DX Z (ip), vehicle: saline) 123 % of control; (dose: 31.0 mg/kg/injection, schedule: Q01DX Z (ip), vehicle: carboxymethylcellulose (CMC)) 168 % of control. Moreover, the T/C (dose: 32.0 mg/kg/injection, schedule: Q01DX004 (im), vehicle: olive oil, sesame oil, peanut oil) is 109 % of control; the T/C (dose: 32.0 mg/kg/injection, schedule: Q01DX010 (sc), vehicle: saline) is 159 % of control; the T/C (dose: 62.0 mg/kg/injection, schedule: Q01DX Z (ip), vehicle: carboxymethylcellulose (CMC)) is 197 % of control; the T/C (dose: 62.5 mg/kg/injection, schedule: Q01DX010 (oral), vehicle: saline) was 115 % of control; the T/C (dose: 64.0 mg/kg/injection, schedule: Q01DX004 (im), vehicle: olive oil, sesame oil, peanut oil) is 114 % of control; the T/C (dose: 64.0 mg/kg/injection, schedule: Q01DX010 (sc), vehicle: saline) is 179 % of control. In addition, the T/C is 249 % of control (dose: 64.0 mg/kg/injection, schedule: Q01DX Z (ip), vehicle: saline); 87 % of control (dose: 125.0 mg/kg/injection, schedule: Q01DX010 (oral), vehicle: saline); 155 % of control (dose: 125.0 mg/kg/injection, schedule: Q01DX Z (ip), vehicle: carboxymethylcellulose (CMC)); 186 % of control (dose: 128.0 mg/kg/injection, schedule: Q01DX010 (sc), vehicle: saline); 212 % of control (dose: 128.0 mg/kg/injection, schedule: Q01DX Z (ip), vehicle: saline); 88 % of control (dose: 250.0 mg/kg/injection, schedule: Q01DX010 (oral), vehicle: saline). Further, the T/C is 117 % of control (dose: 250.0 mg/kg/injection, schedule: Q01DX Z (ip), vehicle: carboxymethylcellulose (CMC)); 117 % of control (dose: 500.0 mg/kg/injection, schedule: Q01DX010 (oral), vehicle: saline); 115 % of control (dose: 1000.0 mg/kg/injection, schedule: Q01DX010 (oral), vehicle: saline).

With `O=C(O)/C(=C\CCCCCC/C=C(\CCO)C(=O)O)CCO`, the T/C was 98 % of control under setting [4]; 96 % of control under setting [6]; 91 % of control under setting [5]; 93 % of control (dose: 200.0 mg/kg/injection, schedule: Q04DX003 (ip), vehicle: Klucel (hydroxypropylcellulose) (HPC)); 89 % of control under setting [7]; 93 % of control (dose: 400.0 mg/kg/injection, schedule: Q04DX003 (ip), vehicle: Klucel (hydroxypropylcellulose) (HPC)).

For the compound `Nc1ccc2nc[nH]c2c1`, the T/C runs as follows: (dose: 100.0 mg/kg/injection, schedule: Q01DX009 (ip), vehicle: saline) 98 % of control; (dose: 100.0 mg/kg/injection, schedule: Q04DX003 (ip), vehicle: saline) 101 % of control; (dose: 200.0 mg/kg/injection, schedule: Q01DX009 (ip), vehicle: saline) 95 % of control; (dose: 200.0 mg/kg/injection, schedule: Q04DX003 (ip), vehicle: saline) 104 % of control; (dose: 400.0 mg/kg/injection, schedule: Q01DX009 (ip), vehicle: saline) 87 % of control; (dose: 400.0 mg/kg/injection, schedule: Q04DX003 (ip), vehicle: saline) 102 % of control.
